# Measurements from publication PMC12655551, “Design, Synthesis, and Evaluation of Pyrrole-Based Selective MAO-B Inhibitors with Additional AChE Inhibitory and Neuroprotective Properties Identified via Virtual Screening” (Pharmaceuticals, 2025).
# Assays:
# [1] = test system: isolated rat brain synaptosomes; assay: 6-OHDA-induced neurotoxicity in isolated rat brain synaptosomes; type: cell-based; conditions: 150 μM, vs non-treated synaptosomes
# Description: (§1) Two types of buffers were used for the isolation of the rat brain synaptosomes and mitochondria. Buffer A was 5 mM HEPES and 0.32 M Sucrose; Buffer B was 290 mM NaCl, 0.95 mM MgCl2 × 2H2O, 10 mM KCl, 2.4 mM CaCl2 × 2H2O, 2.1 mM NaH2PO4, 44 mM HEPES, 13 mM D-Glucose. For the gradient centrifugation, Percoll reagent was used. A stock solution of 90% Percoll was used to prepare 16%, 10% and 7.5% solutions. All the solutions were used as described below. Immediately after harvesting, synaptosomes, microsomes, and mitochondria were incubated with the exam compounds for 1 h. For assessing the possible neurotoxicity of the most MAOB active compounds, the sub-cellular fractions were incubated with 100 µM of them, and for evaluating their possible neuroprotective and antioxidant activities in different models of neurotoxicity, the sub-cellular fractions were incubated with 50µM of them. The protein measurement of all the sub-cellular fractions was made by the method of Lowry et al., 1951 [57].
# The synaptosomes were prepared from rat brains by multiple sub-cellular fractionation using a Percoll gradient.
# This in vitro model resembles the neurodegenerative processes occurring in PD. Dopamine metabolism and oxidation led to the formation of reactive oxygen species (ROS) and reactive quinones. These processes were catalyzed by the MAOB enzyme. They induced dopamine neurotoxicity and neurodegeneration. The synaptosomes were incubated with 150 μM 6-OHDA for 1 h.
# After the incubation, the synaptosomes were centrifuged three times at 15,000× g for 1 min. MTT-test was performed to determine synaptosomal vitality by the method described by Mungarro-Menchaca et al..
# The level of GSH was determined by measuring the non-protein SH-groups after precipitation of the proteins with trichloroacetic acid (TCA). The presence of thiols in the supernatant was determined using Elmman’s reagent. The resulting yellow color was measured spectrophotometrically (λ = 412 nm).
# [2] = test system: isolated rat brain mitochondria; assay: t-BuOOH-induced oxidative stress in isolated rat brain mitochondria; type: cell-based; conditions: 75 μM, vs non-treated mitochondria
# Description: as §1
# The mitochondria were prepared by multiple differential fractionation using a Percoll gradient.
# The mitochondria were incubated with 75 μM t-BuOOH [57].
# After incubation of the mitochondria, 0.3 mL 0.2% TBA and 0.25 mL sulfuric acid (0.05 M) were added to stop the reaction. The tubes were maintained at 100 °C for 30 min. In the next stage, centrifugation of the tubes was carried out at 3500× g for 10 min. Assessment of the total quantity of MDA formed in each sample was measured in the supernatant at 532 nm.
# After incubation of mitochondria, 0.04% DTNB was mixed with the mitochondrial suspensions in 0.1 M phosphate buffer (pH 7.4). The absorbance of the yellow product was measured at 412 nm.
Structure (SMILES),decrease of GSH level by the toxic agent alone [1],decrease of synaptosomal viability by the toxic agent alone [1],decrease of GSH level by the toxic agent alone [2],increase of MDA production by the toxic agent alone [2]
"NCCc1cc(O)c(O)cc1O [Compound 6-OHDA, 6-hydroxydopamine, reference compound]",50%,50%,–,–
"CC(C)(C)OO [t-BuOOH, tert-butyl hydroperoxide, reference compound]",–,–,50%,150%
